The experiment concerns the target AChE (Electrophorus electricus, 220 U·mg^-1) (Electrophorus electricus, UniProt O42275). Description: modified Ellman assay, […] nm. In kind it is biochemical. On the technique in general: DTNB colorimetry detects thiols as they appear.

Each structure is given as a SMILES string.

We go through two compounds from publication PMC11436701 (Scientific Reports, 2024).

Sequence of AChE (Electrophorus electricus, 220 U·mg^-1) (O42275 24-633): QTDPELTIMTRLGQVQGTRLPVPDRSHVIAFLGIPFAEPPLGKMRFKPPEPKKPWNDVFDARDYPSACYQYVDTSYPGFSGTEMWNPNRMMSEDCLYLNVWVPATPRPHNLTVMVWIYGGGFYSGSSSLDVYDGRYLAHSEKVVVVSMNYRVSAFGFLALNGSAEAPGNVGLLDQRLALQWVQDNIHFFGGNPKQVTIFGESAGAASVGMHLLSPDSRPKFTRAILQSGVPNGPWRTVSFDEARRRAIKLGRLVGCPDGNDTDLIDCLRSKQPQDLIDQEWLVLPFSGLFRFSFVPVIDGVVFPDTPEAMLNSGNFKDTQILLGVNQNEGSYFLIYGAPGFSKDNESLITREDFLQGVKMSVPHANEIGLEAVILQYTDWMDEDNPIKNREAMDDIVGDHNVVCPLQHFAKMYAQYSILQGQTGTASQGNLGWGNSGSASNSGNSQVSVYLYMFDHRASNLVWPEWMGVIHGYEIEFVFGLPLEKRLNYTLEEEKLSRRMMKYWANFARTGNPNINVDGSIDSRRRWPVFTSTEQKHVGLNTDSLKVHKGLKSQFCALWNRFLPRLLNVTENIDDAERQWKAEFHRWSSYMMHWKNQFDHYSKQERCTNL

What is called IC50 is the concentration needed to halve the response being measured. With `CCOP(=S)(OCC)Oc1nc(Cl)c(Cl)cc1Cl` [CPF, chlorpyrifos], the IC50 amounted to 73 µM. Consider `COP(=O)(OC)OC=C(Cl)Cl` [DDVP, dichlorvos], for which the IC50 was found to be 1.25 µM.
